Molecular target: Nucleotide-binding oligomerization domain-containing protein 2 (Homo sapiens, UniProt Q9HC29)
Experiment: Inhibition of NOD2 in human monocytes assessed as reduction in MDP-induced TNFalpha production preincubated for 30 mins followed by MDP-stimulation and measured after 6 hrs by immunoassay

Chain of Nucleotide-binding oligomerization domain-containing protein 2 (Q9HC29 whole entry, the tested form may be a part): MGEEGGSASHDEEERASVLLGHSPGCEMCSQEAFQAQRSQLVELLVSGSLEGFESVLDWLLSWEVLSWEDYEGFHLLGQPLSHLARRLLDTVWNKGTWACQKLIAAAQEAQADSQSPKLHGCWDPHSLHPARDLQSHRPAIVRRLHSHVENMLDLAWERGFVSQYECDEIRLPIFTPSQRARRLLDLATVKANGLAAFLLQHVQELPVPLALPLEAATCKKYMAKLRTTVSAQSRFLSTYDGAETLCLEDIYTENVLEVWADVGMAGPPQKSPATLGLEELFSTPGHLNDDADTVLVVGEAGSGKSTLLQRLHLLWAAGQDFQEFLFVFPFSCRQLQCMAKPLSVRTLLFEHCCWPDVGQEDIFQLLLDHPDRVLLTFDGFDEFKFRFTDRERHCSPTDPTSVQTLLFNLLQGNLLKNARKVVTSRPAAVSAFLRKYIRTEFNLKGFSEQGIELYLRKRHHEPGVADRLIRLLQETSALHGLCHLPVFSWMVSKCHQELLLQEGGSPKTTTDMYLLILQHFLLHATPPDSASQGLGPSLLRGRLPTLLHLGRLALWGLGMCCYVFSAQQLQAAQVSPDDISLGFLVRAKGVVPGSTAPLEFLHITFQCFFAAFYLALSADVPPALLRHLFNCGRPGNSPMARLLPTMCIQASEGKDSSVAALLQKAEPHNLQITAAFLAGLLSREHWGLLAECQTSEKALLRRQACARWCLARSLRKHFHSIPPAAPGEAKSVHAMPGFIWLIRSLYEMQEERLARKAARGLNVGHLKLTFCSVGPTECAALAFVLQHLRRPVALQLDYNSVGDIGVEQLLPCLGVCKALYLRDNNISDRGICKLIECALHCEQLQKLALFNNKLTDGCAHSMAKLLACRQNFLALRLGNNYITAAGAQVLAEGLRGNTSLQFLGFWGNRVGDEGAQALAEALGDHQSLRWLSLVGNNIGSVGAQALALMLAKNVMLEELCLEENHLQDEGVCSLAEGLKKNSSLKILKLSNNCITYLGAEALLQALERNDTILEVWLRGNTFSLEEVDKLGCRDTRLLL

## CC(C)(C)S(=O)(=O)c1cc2c(Nc3ccc4scnc4c3)ncnc2cc1OCCO
  IC50: 13 nM
